In patent US10711244B2, “Mammalian neural plate border stem cells capable of forming neural tube and neural crest cell lineages including central and peripheral neurons” (Max-Planck-Gesellschaft zur Förderung der Wissenschaften …, priority 2012, dated 2020):

Assays:
Assay type in all cases: cell-based, human
differentiating hEBs = assay: NPBSC derivation from EBs with CHIR and/or PMA; settings: EBs treated with the indicated small molecules; morphology, neural markers
Method: For generation of NPBSCs from pluripotent stem cells, colonies were detached from the MEFs three to four days after splitting, using 2 mg/ml collagenase IV (Invitrogen). Colony pieces were collected by sedimentation and resuspended in hESC medium (without FGF2) supplemented with 10 μM SB-431542 (Ascent Scientific), 1 μM dorsomorphin (Tocris) for neural induction, as well as 3 μM CHIR 99021 (Axon Medchem), 0.5 μM PMA (Alexis) and cultured in petri dishes. Medium was replaced on day two by N2B27 supplemented with the same small molecule supplements. N2B27 consisted of DMEM-F12 (Invitrogen)/Neurobasal (Invitrogen) 50:50 with 1:200 N2 supplement (Invitrogen), 1:100 B27 supplement lacking vitamin A (Invitrogen) with 1% Penicillin/Streptomycin/Glutamine (PAA). On day four, SB-431542 and dorsomorphin were withdrawn and 150 μM Ascorbic Acid (AA; Sigma) was added to the medium. […] BD Biosciences) 12 well plates at a density of about ten to fifteen per well in NPBSC expansion medium (N2B27 with CHIR, PMA and AA). For coating, Matrigel was diluted to a final dilution of 1:100 in Knockout DMEM (Invitrogen) prior to coat 500 μl per well of a 12 well plate over night. Coated plates were wrapped with Parafilm and kept in the fridge for up to one month. The first split was performed at a 1:5 to 1:10 ratio on day 2 to 4 after plating. All the remaining splitting ratios were 1:10. […]

NPBSCs [1] = assay: Dorsoventral patterning of NPBSCs by CHIR and PMA (qRT-PCR, immunostaining)
Method: Total RNA was isolated from cultured cells using RNeasy columns (Qiagen), according to manufacturer instructions, including an on-column DNase digest. Isolated RNA was reverse-transcribed using M-MLV Reverse Transcriptase (USB) with oligo-[…] primers (Metabion) for 1 h at 42° C. qRT-PCR was performed on an Applied Biosystems 7500 Real-Time PCR system with SYBR green PCR master mix (ABI) and 56 ng of original RNA equivalents per 20 μl PCR reaction. Cycling conditions were 40 cycles of 15 s, 95° C./60 s 60° C. Relative expression levels were calculated using the […] method, normalized to biological reference samples and using GAPDH and ACTB as housekeeping genes. Next, we sought to determine if NPBSCs remain competent for WNT and SHH mediated patterning of neural fate commitment. […] SHH signaling opposes dorsal neural fates and specifies ventral fates (Ulloa and Briscoe, 2007). […] Therefore, we conclude that NPBSCs are receptive to WNT and SHH induced dorsoventral patterning of neural fate specification. […] As such, the upregulation of these markers by NPBSCs could also be because of assuming a neural plate border and/or neural crest identity. To test this possibility, we assessed the responsiveness of the CNS progenitor marker SOX1 to SHH and WNT signaling. […] The inhibition by CHIR is the same that induced MSX1 and PAX3 upregulation.

NPBSCs [2] = assay: Neural rosette formation by NPBSC colonies cultured with FGF2
Method: (§1) For confocal microscopy, cells were plated on Matrigel-coated glass coverslips. Cultures were fixed for 20 minutes with 4% paraformaldehyde (Electron Microscopy Sciences) in PBS (Invitrogen) and washed twice with PBS. Permeabilization and blocking was done in one step using 0.1% Triton X-100 (Sigma Aldrich), 10% fetal calf serum (PAA) and 1% BSA in PBS for 45 minutes. Plates or coverslips were washed once with 0.1% BSA in PBS and the primary antibodies applied overnight at 4° C. in 1% BSA in PBS. The next day, following one washing step with 0.1% BSA in PBS, secondary antibodies were applied for one hour at room temperature in 1% BSA in PBS. Finally, cells were washed three times with 0.1% BSA in PBS-T (0.05% Tween 20), including a Hoechst counterstaining for nuclei in the second washing step. Cells were mounted in Vectashield mounting medium (Vector Labs) and imaged on a Zeiss PALM/Axiovert fluorescence microscope or a Zeiss LSM700 confocal microscope. If necessary, images were merged using ImageJ and Adobe Photoshop.
We tested this by culturing NPBSC colonies in the presence of FGF2, which has previously been reported to induce neural rosette formation by hEBs that have been plated (Zhang et al., 2001). […] For further characterization, we immunostained for ZO-1, which is expressed by neural rosettes but spatially localized to the apical surface (Elkabetz et al., 2008).

NPBSCs [3] = assay: Directed differentiation of NPBSCs into PNS neurons
Method: For generation of PNS neurons, NPBSCs two days after splitting were switched to N2B27 with only CHIR for two days. Afterward, 10 ng/ml BMP4 (R&D Systems) was added for eight days. Splitting and maturation was performed as described for the generation of motor neurons. For astrocyte and mesenchymal neural crest differentiation, NPBSCs were cultured with DMEM (PAA) with 10% fetal calf serum (PAA) and 1% Pen/Strep/Glutamin (PAA), beginning two days after splitting. Cultures were split twice at a 1:3 ratio when confluent using trypsin (Invitrogen).
as §1
Total RNA was isolated from cultured cells using RNeasy columns (Qiagen), according to manufacturer instructions, including an on-column DNase digest. […] Relative expression levels were calculated using the 2^−2Δ method, normalized to biological reference samples and using GAPDH and ACTB as housekeeping genes. […]

Molecule: Cc1cnc(-c2cnc(NCCNc3ccc(C#N)cn3)nc2-c2ccc(Cl)cc2Cl)[nH]1 [CHIR, 6-[[2-[[4-(2,4-dichlorophenyl)-5-(5-methyl-1H-imidazol-2-yl)-2-pyrimidinyl]amino]ethyl]amino]-3-pyridinecarbonitrile]
- outcome of NPBSC derivation from EBs (differentiating hEBs): produced many non-neural cells
- SOX1 expression (NPBSCs [1]; 6 days): inhibited
- expression of dorsal neural progenitor markers MSX1 and PAX3 (NPBSCs [1]; 6 days culture): upregulated

Molecule: FGF2: basic fibroblast growth factor, a member of the fibroblast growth factor family
- neural rosette formation (NPBSCs [2]; NPBSC colonies cultured with FGF2 for 2 days): numerous neural rosettes were formed
- ZO-1 expression localization (NPBSCs [2]; immunostaining after FGF2 treatment): re-oriented to the apical surface of the rosettes

B1: BMP4: activator of the BMP signalling pathway (Gene Symbol BMP4), from R&D Systems (protein, UniProt P12644 293-408, looked up)
Bone morphogenetic protein 4: SPKHHSQRARKKNKNCRRHSLYVDFSDVGWNDWIVAPPGYQAFYCHGDCPFPLADHLNSTNHAIVQTLVNSVNSSIPKACCVPTELSAISMLYLDEYDKVVLKNYQEMVVEGCGCR
- PERIPHERIN immunostaining of neurons (NPBSCs [3]; 8 days BMP4): majority of the neurons were PERIPHERIN-positive
- effect on neurogenesis (NPBSCs [3]; 8 days treatment): did not inhibit neurogenesis
- PERIPHERIN and BRN3A expression (NPBSCs [3]; qRT-PCR, 8 days of treatment): upregulated
